In ChEMBL document CHEMBL1201862, “PubChem BioAssay data set” (2004):
Calls of active or inactive are those of the source.

Tests used:
[1] = target: DNA damage-inducible transcript 3 protein (Mus musculus, UniProt P35639); type: functional, Cricetulus griseus
[2] = target: T1, Heat shock factor protein 1 (Mus musculus, UniProt P38532); experiment: HSF1 potentiators in luciferase reporter cells, confirmation, cell-based, NIH3T3, luminescence, dose retest (AID 435004); type: functional;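 further: stress induced by proteasome inhibitor MG132 added 30 min after compound; luciferase reporter driven by HSF1 response element in NIH3T3 cells; actives raise luminescence as potentiators of the MG132 stress response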
T1 sequence (P38532 whole entry): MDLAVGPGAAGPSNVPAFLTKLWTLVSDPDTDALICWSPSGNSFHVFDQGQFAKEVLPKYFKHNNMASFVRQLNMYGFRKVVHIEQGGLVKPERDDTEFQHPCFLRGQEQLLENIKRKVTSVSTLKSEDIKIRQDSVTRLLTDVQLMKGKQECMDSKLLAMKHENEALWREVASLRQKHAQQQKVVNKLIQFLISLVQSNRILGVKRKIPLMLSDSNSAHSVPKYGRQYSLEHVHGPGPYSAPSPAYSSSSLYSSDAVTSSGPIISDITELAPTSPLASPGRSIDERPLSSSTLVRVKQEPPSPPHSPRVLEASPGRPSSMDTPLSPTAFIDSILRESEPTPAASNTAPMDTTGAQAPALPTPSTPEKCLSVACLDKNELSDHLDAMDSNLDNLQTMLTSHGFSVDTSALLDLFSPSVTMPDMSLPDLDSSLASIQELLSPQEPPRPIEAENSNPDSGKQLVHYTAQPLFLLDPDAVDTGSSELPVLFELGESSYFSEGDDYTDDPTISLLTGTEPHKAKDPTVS

Coagulation factor XII = target: T2, Coagulation factor XII (Homo sapiens, UniProt P00748); type: functional;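 further: activated factor XIIa alpha cleaving a fluorogenic AMC peptide substrate; inhibitor potency from loss of enzyme activity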
T2 sequence (P00748 whole entry): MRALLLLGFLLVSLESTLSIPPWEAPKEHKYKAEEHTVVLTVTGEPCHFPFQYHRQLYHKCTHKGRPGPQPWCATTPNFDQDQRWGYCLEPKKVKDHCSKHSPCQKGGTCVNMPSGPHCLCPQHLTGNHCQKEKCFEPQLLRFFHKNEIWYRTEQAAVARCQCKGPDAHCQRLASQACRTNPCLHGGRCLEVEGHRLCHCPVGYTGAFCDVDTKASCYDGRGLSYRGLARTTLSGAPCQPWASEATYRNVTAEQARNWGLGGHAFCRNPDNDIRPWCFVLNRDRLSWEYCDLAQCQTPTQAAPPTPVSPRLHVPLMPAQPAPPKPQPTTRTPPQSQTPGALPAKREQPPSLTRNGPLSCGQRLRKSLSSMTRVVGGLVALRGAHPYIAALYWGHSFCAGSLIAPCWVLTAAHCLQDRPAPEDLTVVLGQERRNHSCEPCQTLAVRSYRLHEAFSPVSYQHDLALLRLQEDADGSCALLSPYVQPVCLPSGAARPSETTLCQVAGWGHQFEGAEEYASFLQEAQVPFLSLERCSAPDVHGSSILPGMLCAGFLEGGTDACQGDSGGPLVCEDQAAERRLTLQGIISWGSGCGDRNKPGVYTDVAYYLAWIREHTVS

Cysteine protease ATG4B = target: T3, Cysteine protease ATG4B (Homo sapiens, UniProt Q9Y4P1); type: functional;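 further: Fluorescence-based dose-response confirmation assay measuring inhibition of ATG4B activity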
T3 sequence (Q9Y4P1 whole entry): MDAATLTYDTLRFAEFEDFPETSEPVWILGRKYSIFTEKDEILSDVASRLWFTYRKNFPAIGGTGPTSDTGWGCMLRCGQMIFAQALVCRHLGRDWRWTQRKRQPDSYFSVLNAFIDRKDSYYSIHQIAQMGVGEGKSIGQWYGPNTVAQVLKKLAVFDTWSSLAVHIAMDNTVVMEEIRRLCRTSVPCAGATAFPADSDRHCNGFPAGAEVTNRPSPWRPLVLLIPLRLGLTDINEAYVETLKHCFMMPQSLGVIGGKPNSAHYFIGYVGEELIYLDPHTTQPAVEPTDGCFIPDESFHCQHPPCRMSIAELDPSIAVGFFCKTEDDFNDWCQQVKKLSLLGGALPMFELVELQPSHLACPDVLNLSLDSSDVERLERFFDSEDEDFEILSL

Phospholipase A2 = Phospholipase A2 (Homo sapiens, UniProt P04054); type: functional;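 further: confirmatory dose-response counterscreen on phospholipase A2, testing hits that came from an ultra-high-throughput screen for ATG4B inhibitors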
Phospholipase A2, sequence (P04054 whole entry): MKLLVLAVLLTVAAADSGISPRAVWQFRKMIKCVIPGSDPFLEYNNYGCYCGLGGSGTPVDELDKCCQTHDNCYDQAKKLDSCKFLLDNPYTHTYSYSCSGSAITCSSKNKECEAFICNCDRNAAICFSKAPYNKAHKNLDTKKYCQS

Protein RecA = target: T4, Protein RecA (Mycobacterium tuberculosis, UniProt P9WHJ3); experiment: Fluorescence Cell-Free Homogeneous Dose Retest to Identify Inhibitors of RecA-Intein Splicing Activity. [Related pubchem assays (depositor defined):AID2097, AID2223, AID489010, AID492950]; type: functional
T4 sequence (P9WHJ3 whole entry): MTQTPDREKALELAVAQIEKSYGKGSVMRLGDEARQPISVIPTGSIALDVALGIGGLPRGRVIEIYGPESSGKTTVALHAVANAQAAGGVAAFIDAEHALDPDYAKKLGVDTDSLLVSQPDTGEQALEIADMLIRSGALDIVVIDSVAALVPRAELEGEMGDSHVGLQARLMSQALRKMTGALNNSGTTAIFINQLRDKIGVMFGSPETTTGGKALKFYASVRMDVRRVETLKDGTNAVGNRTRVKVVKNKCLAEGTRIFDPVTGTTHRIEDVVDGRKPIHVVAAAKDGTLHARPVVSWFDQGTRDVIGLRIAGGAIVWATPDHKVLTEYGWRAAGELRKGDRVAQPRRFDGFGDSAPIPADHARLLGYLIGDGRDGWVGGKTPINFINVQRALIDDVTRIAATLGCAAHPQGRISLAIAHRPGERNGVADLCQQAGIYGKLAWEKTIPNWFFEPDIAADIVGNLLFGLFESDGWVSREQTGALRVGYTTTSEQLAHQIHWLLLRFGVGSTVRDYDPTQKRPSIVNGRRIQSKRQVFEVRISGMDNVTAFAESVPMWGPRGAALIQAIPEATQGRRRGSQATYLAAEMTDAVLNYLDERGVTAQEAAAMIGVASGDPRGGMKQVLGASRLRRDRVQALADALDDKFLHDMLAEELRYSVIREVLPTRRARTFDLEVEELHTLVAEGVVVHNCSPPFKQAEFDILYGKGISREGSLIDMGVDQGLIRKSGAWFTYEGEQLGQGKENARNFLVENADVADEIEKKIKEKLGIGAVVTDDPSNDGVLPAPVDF

[3] = target: T5, Probable nicotinate-nucleotide adenylyltransferase (Staphylococcus aureus (strain N315), UniProt P65502); type: functional, Staphylococcus aureus subsp. aureus N315; conditions: read-out: IC50_Mean;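 on IC50 Mean: confirmatory dose-response retesting of NadD inhibitor hits first found in an ultra-high-throughput screen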
T5 sequence (P65502 whole entry): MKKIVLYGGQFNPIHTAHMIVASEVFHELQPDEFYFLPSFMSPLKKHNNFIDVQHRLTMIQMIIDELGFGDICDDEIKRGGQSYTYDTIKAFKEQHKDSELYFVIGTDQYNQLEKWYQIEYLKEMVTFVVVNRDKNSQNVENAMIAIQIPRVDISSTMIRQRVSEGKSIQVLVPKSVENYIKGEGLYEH

[4] = target: T5, Probable nicotinate-nucleotide adenylyltransferase; type: functional, Staphylococcus aureus subsp. aureus N315
[5] = target: T6, Replicative DNA helicase DnaB (Mycobacterium tuberculosis, UniProt P9WMR3); experiment: DnaB intein splicing inhibitors, dose response, biochemical, cell-free fluorescence (AID 449749); type: functional
T6 sequence (P9WMR3 whole entry): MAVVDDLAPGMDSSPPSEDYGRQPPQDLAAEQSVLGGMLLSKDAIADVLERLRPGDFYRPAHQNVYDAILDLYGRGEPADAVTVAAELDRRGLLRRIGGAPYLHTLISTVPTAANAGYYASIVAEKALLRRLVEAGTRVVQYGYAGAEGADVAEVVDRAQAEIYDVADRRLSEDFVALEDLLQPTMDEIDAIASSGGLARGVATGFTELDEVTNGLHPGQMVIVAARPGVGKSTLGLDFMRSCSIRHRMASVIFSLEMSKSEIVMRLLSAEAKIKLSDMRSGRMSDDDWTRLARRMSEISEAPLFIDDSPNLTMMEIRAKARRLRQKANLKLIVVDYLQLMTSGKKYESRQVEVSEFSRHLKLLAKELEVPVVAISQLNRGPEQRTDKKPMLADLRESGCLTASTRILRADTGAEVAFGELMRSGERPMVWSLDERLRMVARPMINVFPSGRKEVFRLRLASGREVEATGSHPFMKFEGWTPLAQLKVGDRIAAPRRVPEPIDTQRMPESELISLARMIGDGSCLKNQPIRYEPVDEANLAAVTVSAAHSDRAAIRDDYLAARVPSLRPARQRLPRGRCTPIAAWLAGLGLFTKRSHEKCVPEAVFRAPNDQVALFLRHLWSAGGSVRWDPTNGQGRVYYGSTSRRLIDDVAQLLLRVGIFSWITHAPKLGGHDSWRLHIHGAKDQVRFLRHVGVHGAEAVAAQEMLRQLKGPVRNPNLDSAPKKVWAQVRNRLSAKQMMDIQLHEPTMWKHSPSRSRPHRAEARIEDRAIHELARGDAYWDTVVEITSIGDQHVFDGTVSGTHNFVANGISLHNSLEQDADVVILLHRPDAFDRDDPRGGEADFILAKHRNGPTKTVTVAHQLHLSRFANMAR

[6] = THP-1 cell cytotoxicity, dose response, cytotoxicity control for non-replicating M. tuberculosis project (AID 489025); type: functional
[7] = target: T7, Tyrosyl-DNA phosphodiesterase 2 (Homo sapiens, UniProt O95551); experiment: human TDP2 enzyme inhibitors, dose response, biochemical, epi absorbance, IC50 (AID 743297)
T7 sequence (O95551 whole entry): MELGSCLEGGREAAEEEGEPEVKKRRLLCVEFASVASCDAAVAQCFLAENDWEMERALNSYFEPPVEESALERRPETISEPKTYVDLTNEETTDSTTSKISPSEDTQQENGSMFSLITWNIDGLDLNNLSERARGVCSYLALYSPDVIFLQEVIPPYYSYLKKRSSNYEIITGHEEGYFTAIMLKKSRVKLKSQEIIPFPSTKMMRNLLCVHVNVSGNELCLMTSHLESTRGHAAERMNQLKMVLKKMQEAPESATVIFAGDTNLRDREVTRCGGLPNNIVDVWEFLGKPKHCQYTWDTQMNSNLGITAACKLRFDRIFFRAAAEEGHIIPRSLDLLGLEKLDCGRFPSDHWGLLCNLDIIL

BJ [8] = experiment: cells; type: functional, cell-based; conditions: Homo sapiens
[9] = cytotoxicity toward NIH3T3 fibroblasts, dose response, counter-screen, cell-based, ATP luminescence, mouse fibroblasts (AID 2010); type: functional;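 further: cells exposed to compound for about 90 hours before reading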
[10] = target: T8, Mannose-6-phosphate isomerase (Homo sapiens, UniProt P34949); experiment: human PMI inhibitors, high substrate, primary screen, biochemical, fluorescence intensity, high mannose 6-phosphate (AID 1220)
T8 sequence (P34949 whole entry): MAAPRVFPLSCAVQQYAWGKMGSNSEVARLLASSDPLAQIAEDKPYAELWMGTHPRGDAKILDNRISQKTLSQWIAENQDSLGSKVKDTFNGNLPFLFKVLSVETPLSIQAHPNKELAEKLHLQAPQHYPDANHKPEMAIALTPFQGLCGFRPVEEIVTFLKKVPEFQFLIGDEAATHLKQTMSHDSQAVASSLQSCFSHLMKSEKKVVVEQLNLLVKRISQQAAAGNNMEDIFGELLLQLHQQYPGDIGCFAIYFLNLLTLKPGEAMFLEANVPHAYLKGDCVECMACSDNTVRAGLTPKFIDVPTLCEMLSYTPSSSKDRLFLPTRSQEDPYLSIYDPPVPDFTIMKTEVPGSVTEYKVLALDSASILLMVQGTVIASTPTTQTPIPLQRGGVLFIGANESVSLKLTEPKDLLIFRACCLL

[11] = microbe, parasite or virus in culture; type: functional; conditions: Mycobacterium tuberculosis
[12] = HepG2 cell cytotoxicity, dose response, cytotoxicity control for non-replicating M. tuberculosis project (AID 489018); type: functional; conditions: Mycobacterium tuberculosis
BJ [13] = experiment: cytotoxicity toward BJ-TERT-LT-ST fibroblasts, dose response, cell-based, RAS-independent, luminescence (AID 1935); type: functional; conditions: Homo sapiens;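 further: BJ fibroblasts immortalized with TERT plus LT and ST oncogenes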
[14] = growth suppression of beta-catenin-knockout colon cells, dose response, cell-based, HCT116, human colon tumor (AID 1045); type: functional;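 further: HCT116 colon tumor cells with beta catenin knocked out; cells exposed to compound for 60 hours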
INS1 = experiment: beta cell apoptosis inhibitors, cytokine rescue, dose response, luminescence, retest (AID 449756); type: functional, cell-based; conditions: Rattus norvegicus;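 further: cell death triggered by IL-1 beta plus TNF-alpha plus IFN-gamma mixture; protective hits raise ATP signal compared with cytokine alone wells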
[15] = inhibitors of intracellular T. cruzi replication, confirmation, NIH3T3 host cells, beta-gal luminescence (AID 2044); type: functional, cell-based;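 further: intracellular parasites grown in NIH/3T3 mouse fibroblasts as host cells; luminescent beta-galactosidase reporter signal from transgenic T. cruzi replicating inside host cells; inhibitors lower the luminescence signal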
[16] = cytotoxicity toward DRD oncogenic fibroblasts, dose response, cell-based, non-viral oncogenic, luminescence (AID 1934); type: functional; conditions: Homo sapiens
[17] = growth suppression of PTEN-null colon cells, dose response, cell-based, HCT116 PTEN knockout (AID 1047); type: functional;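 further: HCT116 colon tumor cells with PTEN knocked out; cells exposed to compound for 60 hours before readout; potency for loss of cell viability measured by luminescence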
[18] = Vero E6 cell cytotoxicity, dose response, cytotoxicity control for non-replicating M. tuberculosis project, secondary assay (AID 492998); type: functional, VeroE6; conditions: Vero C1008
cells = type: functional
BJ [19] = experiment: cytotoxicity toward BJ-TERT fibroblasts, dose response, cell-based, RAS-independent, luminescence (AID 1933); type: functional; conditions: Homo sapiens

DNA damage-inducible transcript 3 protein, sequence (P35639 whole entry): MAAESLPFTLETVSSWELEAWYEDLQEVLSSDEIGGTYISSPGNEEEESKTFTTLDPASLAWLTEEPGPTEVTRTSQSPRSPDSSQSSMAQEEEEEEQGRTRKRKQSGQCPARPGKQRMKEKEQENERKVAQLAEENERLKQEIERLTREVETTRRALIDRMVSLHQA

CCn1cc([N+](=O)[O-])c(C(=O)N2N=C(c3ccc(Cl)c(Cl)c3)CC2c2ccccc2O)n1 (stereo unspecified)
Absolute IC50 (CHOP) [1]: 10 µM
EC50 [2]: > 260 µM (inactive)

CCC1SC(CC)C(=O)N(CC(=O)NC2CCCCC2)C1=O (stereo unspecified)
IC50 (Coagulation factor XII): > 50 µM (inactive)

CN(C)c1ccc(-c2nnn(Cc3ccccc3Br)n2)cc1
IC50 (Cysteine protease ATG4B): 13.2 µM (active)
IC50 (Phospholipase A2): 7.95 µM (active)

CC(=O)c1ccc(N2CCN(S(=O)(=O)c3cccc(S(=O)(=O)N4CCOCC4)c3)CC2)cc1
IC50 (Coagulation factor XII): > 50 µM (inactive)

CCOc1ccc(N2C(=O)/C(=C\c3ccc(O)c(OC)c3)S(=O)(=O)C2c2cccc([N+](=O)[O-])c2)cc1 (stereo unspecified)
Absolute IC50 (CHOP) [1]: 10 µM
EC50 (Protein RecA): 3.74 µM (active)
IC50 [3]: 35.9 µM (active)
IC50 [4]: 9.57 µM (active)
EC50 [2]: 8.52 µM (active)
AC50 [5]: 2.96 µM (active)

O=C1OC(Nc2ncccn2)c2ccccc21 (stereo unspecified)
IC50 (Coagulation factor XII): > 50 µM (inactive)

CCCNC1=C(N(C(C)=O)c2cccc(F)c2)C(=O)c2ccccc2C1=O
CC50 [6]: 1.47 µM (active)
EC50 (Protein RecA): 2.06 µM (active)
IC50 [7]: > 4.75 µM (active)
EC50 (BJ [8]): 5.96 µM (active)
EC50 [9]: 10.3 µM (active)
IC50 [10]: > 50 µM (not active)
CC50 [11]: 31 µM (active)
CC50 [12]: 8.6 µM (active)
EC50 (BJ [13]): 6.6 µM (active)
EC50 [14]: 0.979 µM (active)
AC50 (INS1): 1.03 µM (active)
EC50 [15]: 1.23 µM (active)
EC50 [16]: 6.47 µM (active)
EC50 [17]: 1.14 µM (active)
CC50 [18]: 17.7 µM (active)
IC50 (cells): 20.8 µM (active)
EC50 (BJ [19]): 6.47 µM (inconclusive)
AC50 [5]: 9.44 µM (active)
